We go through 17 compounds from US8940756B2, “Dihydronaphthyridines and related compounds useful as kinase inhibitors for the treatment of proliferative diseases” (Deciphera Pharmaceuticals, Inc., priority 2012, dated 2015).

Some results are limits rather than exact numbers.

The target of assay [1] is Phospho-KIT (Tyr719) in GIST430 cells (Homo sapiens, UniProt P10721). The experiment in a line: GIST430 KIT Western Blot. It counts as cell-based. Conditions: 4 hours, read-out: pKIT suppression by western blot analysi GIST430. Here is the method: (§1) GIST48, GIST430, and GIST882 cells were obtained from J. Fletcher (Brigham and Women's Hospital, Boston, Mass.). GIST T1 cells were obtained from B. Rubin (Cleveland Clinic, Cleveland, Ohio) and Professor Takahiro Taguchi (Kochi Medical School, Nankoku, Kochi, Japan). […] GIST430 cells were grown in Ham's F10 medium supplemented with 15% characterized fetal bovine serum (Invitrogen, Carlsbad, Calif.), 30 mg/L bovine pituitary extract (BD Biosciences, San Jose, Calif.), 0.5% Mito+ serum extender (BD Biosciences, San Jose, Calif.), 1 unit/mL penicillin G, 1 μg/ml streptomycin, and 0.29 mg/mL L-glutamine at 37° C., 5% CO2, 95% humidity. GIST T1 cells were grown in DMEM medium supplemented with 10% characterized fetal bovine serum (Invitrogen, Carlsbad, Calif.), 1 unit/mL penicillin G, 1 ng/ml streptomycin, and 0.29 mg/mL L-glutamine at 37° C., 5% CO2, and 95% humidity. Cells were allowed to expand until reaching 70-95% confluence at which point they were subcultured or harvested for assay use.
(§2) One hundred fifty thousand cells were added per well in a 24-well tissue-culture treated plate. Cells were then incubated overnight at 37° C., 5% CO2, 95% humidity. Medium was aspirated, cells were washed with PBS, and serum-free Ham's F10 medium was added. A serial dilution of test compound was added to plates containing cells and plates were incubated for 4 hours at 37° C., 5% CO2, 95% humidity. Cells were washed with PBS, then lysed. Cell lysates were separated by SDS-PAGE and transferred to PVDF. Phospho-KIT (Tyr719) was detected using an antibody from Cell Signaling Technology (Beverly, Mass.), ECL Plus detection reagent (GE Healthcare, Piscataway, N.J.) and a Molecular Devices Storm 840 phosphorimager in fluorescence mode. Blots were stripped and probed for total KIT using an antibody from Santa Cruz Biotech (Santa Cruz, Calif.). IC50 values were calculated using Prism software (Graphpad, San Diego, Calif.).

Assay [2] addresses Phospho-KIT (Tyr719) in GIST48 cells (Homo sapiens, UniProt P10721). The experiment in a line: GIST48 KIT Western Blot. It counts as cell-based. The settings on record: 4 hours, read-out: pKIT suppression by western blot analysi GIST48. Here is the method:
as §1
as §2, with “Two” for “One”, “RPMI1640” for “Ham's F10”

Sequence of Phospho-KIT (Tyr719) in GIST48 cells (P10721 whole entry V560D/D820A, form open): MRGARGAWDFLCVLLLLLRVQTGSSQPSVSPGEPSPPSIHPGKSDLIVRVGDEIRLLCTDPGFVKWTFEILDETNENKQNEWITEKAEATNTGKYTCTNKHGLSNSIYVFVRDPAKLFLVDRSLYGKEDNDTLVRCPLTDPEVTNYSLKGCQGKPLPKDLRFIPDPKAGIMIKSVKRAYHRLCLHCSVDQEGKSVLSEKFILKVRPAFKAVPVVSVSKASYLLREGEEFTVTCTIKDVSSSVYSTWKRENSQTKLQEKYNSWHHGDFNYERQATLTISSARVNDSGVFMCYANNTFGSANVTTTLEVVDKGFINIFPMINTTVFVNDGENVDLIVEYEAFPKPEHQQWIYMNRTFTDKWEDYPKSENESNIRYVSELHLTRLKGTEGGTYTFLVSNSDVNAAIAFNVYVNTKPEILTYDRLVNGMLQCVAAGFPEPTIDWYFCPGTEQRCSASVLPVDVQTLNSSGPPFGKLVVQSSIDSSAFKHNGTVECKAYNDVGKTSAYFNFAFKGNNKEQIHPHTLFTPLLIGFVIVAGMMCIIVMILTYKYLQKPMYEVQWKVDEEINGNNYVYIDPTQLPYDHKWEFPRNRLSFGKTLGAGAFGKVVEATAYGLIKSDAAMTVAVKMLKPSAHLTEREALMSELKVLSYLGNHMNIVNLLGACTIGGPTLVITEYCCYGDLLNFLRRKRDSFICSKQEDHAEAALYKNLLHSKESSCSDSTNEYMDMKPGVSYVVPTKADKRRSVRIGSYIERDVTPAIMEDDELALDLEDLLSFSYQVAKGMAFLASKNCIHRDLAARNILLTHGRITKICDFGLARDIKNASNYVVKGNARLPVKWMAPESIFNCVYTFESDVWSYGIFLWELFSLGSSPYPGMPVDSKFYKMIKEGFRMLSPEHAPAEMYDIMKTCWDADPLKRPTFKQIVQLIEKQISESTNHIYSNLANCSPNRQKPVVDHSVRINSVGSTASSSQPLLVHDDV
Sequence of Phospho-KIT (Tyr719) in GIST430 cells (P10721 with tags, fused parts or gaps DEL560-576/V654A, form open): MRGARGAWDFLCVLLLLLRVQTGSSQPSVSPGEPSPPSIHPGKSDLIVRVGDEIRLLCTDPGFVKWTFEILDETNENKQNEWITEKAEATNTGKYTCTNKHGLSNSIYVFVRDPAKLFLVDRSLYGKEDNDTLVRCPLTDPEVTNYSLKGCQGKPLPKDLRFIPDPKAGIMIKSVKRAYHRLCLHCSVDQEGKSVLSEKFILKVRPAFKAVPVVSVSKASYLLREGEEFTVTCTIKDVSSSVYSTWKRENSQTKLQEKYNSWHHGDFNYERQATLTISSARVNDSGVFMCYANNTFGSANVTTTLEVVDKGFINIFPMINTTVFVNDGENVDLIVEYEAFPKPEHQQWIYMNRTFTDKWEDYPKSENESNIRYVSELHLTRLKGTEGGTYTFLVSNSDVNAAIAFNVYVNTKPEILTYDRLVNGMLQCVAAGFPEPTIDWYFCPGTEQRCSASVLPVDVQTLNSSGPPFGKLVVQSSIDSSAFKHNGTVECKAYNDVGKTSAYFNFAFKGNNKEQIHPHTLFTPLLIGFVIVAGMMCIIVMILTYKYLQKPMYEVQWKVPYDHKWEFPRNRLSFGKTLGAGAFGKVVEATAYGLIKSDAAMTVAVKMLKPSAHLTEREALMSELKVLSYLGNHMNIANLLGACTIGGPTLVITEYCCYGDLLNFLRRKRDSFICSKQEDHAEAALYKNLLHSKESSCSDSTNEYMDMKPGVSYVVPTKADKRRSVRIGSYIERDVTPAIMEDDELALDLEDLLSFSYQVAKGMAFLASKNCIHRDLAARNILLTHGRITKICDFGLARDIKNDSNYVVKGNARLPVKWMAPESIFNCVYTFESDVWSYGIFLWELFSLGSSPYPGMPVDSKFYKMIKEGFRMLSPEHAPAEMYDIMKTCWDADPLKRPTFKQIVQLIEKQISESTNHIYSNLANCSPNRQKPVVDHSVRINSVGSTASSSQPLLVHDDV

Consider `CCn1c(=O)c(-c2cc(NC(=O)Nc3cc(F)cc(F)c3)c(F)cc2C)cc2cnc(NC(=O)N(C)C)cc21` [Example 108, 3-(3-(5-(3-(3,5-difluorophenyl)ureido)-4-fluoro-2-methylphenyl)-1-ethyl-2-oxo-1,2-dihydro-1,6-naphthyridin-7-yl)-1,1-dimethylurea], for which the IC50 in assay [1] fell in the range of 10 to 100 nM; in assay [2], 100 to 1000 nM.
In the case of `CNc1cc2c(cn1)cc(-c1cc(NC(=O)Nc3cccc(F)c3)c(F)cc1Cl)c(=O)n2C(C)C` [Example 77, 1-(4-chloro-2-fluoro-5-(1-isopropyl-7-(methylamino)-2-oxo-1,2-dihydro-1,6-naphthyridin-3-yl)phenyl)-3-(3-fluorophenyl)urea], the IC50 in assay [1] and in assay [2] was 10 to 100 nM throughout.
As for `CCn1c(=O)c(-c2cc(NC(=O)Nc3cc(F)cc(F)c3)c(F)cc2C)cc2cnc(NC)cc21` [Example 60, 1-(3,5-difluorophenyl)-3-(5-(1-ethyl-7-(methylamino)-2-oxo-1,2-dihydro-1,6-naphthyridin-3-yl)-2-fluoro-4-methylphenyl)urea], the IC50 in assay [1] was 10 to 100 nM; in assay [2], more than 1000 nM.
On the same counts, the results for `CCn1c(=O)c(-c2cc(NC(=O)Nc3ccccc3)c(F)cc2Cl)cc2cnc(NC(=O)N(C)C)cc21` [Example 70, 3-(3-(2-chloro-4-fluoro-5-(3-phenylureido)phenyl)-1-ethyl-2-oxo-1,2-dihydro-1,6-naphthyridin-7-yl)-1,1-dimethylurea] are less than 10 nM and 10 to 100 nM.
For `CCn1c(=O)c(-c2cc(NC(=O)Nc3ccccc3)c(F)cc2F)cc2cnc(NCCOC)cc21` [Example 36, 1-(5-(1-ethyl-7-(2-methoxyethylamino)-2-oxo-1,2-dihydro-1,6-naphthyridin-3-yl)-2,4-difluorophenyl)-3-phenylurea], in that order: 100 to 1000 nM and 100 to 1000 nM.
For `CCn1c(=O)c(-c2cc(NC(=O)Nc3csc4ccccc34)c(F)cc2Cl)cc2cnc(NC)cc21` [Example 32], the IC50 in assay [1] and in assay [2] was less than 10 nM in each case.
Consider `CCn1c(=O)c(-c2cc(NC(=O)Nc3ccccc3)c(F)cc2Br)cc2cnc(N)cc21` [Example 57, 1-(5-(7-amino-1-ethyl-2-oxo-1,2-dihydro-1,6-naphthyridin-3-yl)-4-bromo-2-fluorophenyl)-3-phenylurea], for which the IC50 in assay [1] was in the range of 10 to 100 nM; in assay [2] it was 100 to 1000 nM.
For `CCn1c(=O)c(-c2cc(NC(=O)Nc3cc(F)cc(F)c3)c(F)cc2Cl)cc2cnc(NC)cc21` [Example 55, 1-(4-chloro-5-(1-ethyl-7-(methylamino)-2-oxo-1,2-dihydro-1,6-naphthyridin-3-yl)-2-fluorophenyl)-3-(3,5-difluorophenyl)urea], the IC50 in assay [1] was 10 to 100 nM; in assay [2], more than 1000 nM.
On the same counts, the results for `CCn1c(=O)c(-c2cc(NC(=O)Nc3cccc(F)c3)c(F)cc2Br)cc2cnc(NC)cc21` [Example 50, 1-(4-bromo-5-(1-ethyl-7-(methylamino)-2-oxo-1,2-dihydro-1,6-naphthyridin-3-yl)-2-fluorophenyl)-3-(3-fluorophenyl)urea] are less than 10 nM and 100 to 1000 nM.
For `CCn1c(=O)c(-c2cc(NC(=O)Nc3ccccc3)c(F)cc2Cl)cc2cnc(NC(=O)N3CC(O)C3)cc21` [Example 81, N-(3-(2-chloro-4-fluoro-5-(3-phenylureido)phenyl)-1-ethyl-2-oxo-1,2-dihydro-1,6-naphthyridin-7-yl)-3-hydroxyazetidine-1-carboxamide], in that order: 10 to 100 nM and 10 to 100 nM.
Regarding `CCn1c(=O)c(-c2cc(NC(=O)Nc3cccc(F)c3F)c(F)cc2Cl)cc2cnc(NC)cc21` [Example 4, 1-(4-chloro-5-(1-ethyl-7-(methylamino)-2-oxo-1,2-dihydro-1,6-naphthyridin-3-yl)-2-fluorophenyl)-3-(2,3-difluorophenyl)urea], the IC50 in assay [1] and in assay [2] was 10 to 100 nM throughout.
`CCn1c(=O)c(-c2cc(NC(=O)Nc3ccccc3F)c(F)cc2Cl)cc2cnc(NC)cc21` [Example 25, 1-[4-chloro-5-(1-ethyl-7-methylamino-2-oxo-1,2-dihydro-[1,6]naphthyridin-3-yl)-2-fluoro-phenyl]-3-(2-fluoro-phenyl)-urea]: the IC50 in assay [1] and in assay [2] was 10 to 100 nM in each case.
With `CCn1c(=O)c(-c2cc(NC(=O)Nc3csc4ccccc34)c(F)cc2C)cc2cnc(NC)cc21` [Example 59, 1-(benzo[b]thiophen-3-yl)-3-(5-(1-ethyl-7-(methylamino)-2-oxo-1,2-dihydro-1,6-naphthyridin-3-yl)-2-fluoro-4-methylphenyl)urea], the IC50 in assay [1] and in assay [2] was 10 to 100 nM throughout.
Take `CC(=O)Nc1cc2c(cn1)cc(-c1cc(NC(=O)Nc3ccccc3)c(F)cc1Cl)c(=O)n2C(C)C` [Example 86, N-(3-(2-chloro-4-fluoro-5-(3-phenylureido)phenyl)-1-isopropyl-2-oxo-1,2-dihydro-1,6-naphthyridin-7-yl)acetamide]: the IC50 in assay [1] is 10 to 100 nM; in assay [2], less than 10 nM.
Turning to `CNc1cc2c(cn1)cc(-c1cc(NC(=O)Nc3csc4ccccc34)c(F)cc1F)c(=O)n2C` [Example 14, 1-(benzo[b]thiophen-3-yl)-3-(2,4-difluoro-5-(1-methyl-7-(methylamino)-2-oxo-1,2-dihydro-1,6-naphthyridin-3-yl)phenyl)urea], the IC50 was 10 to 100 nM in assay [1] and less than 10 nM in assay [2].
For `CCn1c(=O)c(-c2cc(NC(=O)Nc3cccc(F)c3)c(F)cc2Cl)cc2cnc(N)cc21` [Example 20, 1-(5-(7-amino-1-ethyl-2-oxo-1,2-dihydro-1,6-naphthyridin-3-yl)-4-chloro-2-fluorophenyl)-3-(3-fluorophenyl)urea], in that order: 10 to 100 nM and 100 to 1000 nM.
Turning to `CCn1c(=O)c(-c2cc(NC(=O)Nc3cccc(F)c3)c(F)cc2F)cc2cnc(NC)cc21` [Example 15, 1-(5-(1-ethyl-7-(methylamino)-2-oxo-1,2-dihydro-1,6-naphthyridin-3-yl)-2,4-difluorophenyl)-3-(3-fluorophenyl)urea], the IC50 in assay [1] and in assay [2] was 10 to 100 nM in each case.
